Assay results as given in US20100093624A1, “PEPTIDE THERAPEUTICS THAT BIND VEGF AND METHODS OF USE THEREOF” (Cosmix Therapeutics LLC, priority 2008, published 2010).
“Also recorded” adds a separate entry of the source. Non-standard residues stand in square brackets, D forms with d. Residues, ends and D or L forms follow the SMILES beside them. No end group written: not given here. PEG = not defined here

Key:
[1] = biological target: T1, VEGF165 (Homo sapiens, UniProt P15692); assay: VEGF ELISA of biotin-tagged D-peptides; assay type: binding; details: VEGF165 coated wells, streptavidin/HRP detection
T1 construct: purchased
T1 sequence (P15692 27-191 isoform P15692-4 limits assumed): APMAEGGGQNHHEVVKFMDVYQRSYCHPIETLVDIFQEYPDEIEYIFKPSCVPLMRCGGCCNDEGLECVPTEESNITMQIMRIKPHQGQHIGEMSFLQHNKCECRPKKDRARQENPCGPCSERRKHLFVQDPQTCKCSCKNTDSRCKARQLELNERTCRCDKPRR
Experimental: An ELISA method was developed in which commercially available VEGF165 was coated into ELISA plate wells (MaxiSorb). Biotin-tagged D-peptides (or an anti-VEGF monoclonal antibody, BAF293, R & D Systems) were then added. After washing binding of peptides or antibody to VEGF was determined by treatment with a streptavidin/HRP conjugate which allows colorimetric detection of the presence of the biotin tagged peptides or antibody (see FIG. 3).

[2] = tested on: D-VEGF; assay: Equilibrium bead-binding assay; details: bead-bound peptide, silver-stained SDS-PAGE
Experimental: (§1) A quick, qualitative binding assay was devised in which biotin-tagged peptides are immobilized onto streptavidin-coated magnetic beads. The bead-bound peptides are then treated with VEGF (either synthetic or commercially available VEGF 165). After washing the beads are then boiled in denaturing buffer to release bound VEGF which is then detected by silver-stained SDS-PAGE gel (see FIG. 4).

[3] = biological target: T2, L-VEGF (Homo sapiens, UniProt P15692); assay: Equilibrium bead-binding assay; details: bead-bound peptide, silver-stained SDS-PAGE
T2 construct: VEGF (8-50)-thioester; VEGF (51-101)-thioester; made in house; host or cells: chemical synthesis (Boc SPPS, ligation of two peptides, oxidative folding)
T2 sequence (P15692 214-315): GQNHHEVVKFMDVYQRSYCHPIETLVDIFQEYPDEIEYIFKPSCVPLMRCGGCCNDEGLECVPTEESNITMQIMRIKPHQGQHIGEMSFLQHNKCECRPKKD
Experimental: as §1

[4] = biological target: T1, VEGF165; assay: Equilibrium bead-binding assay; details: bead-bound peptide, silver-stained SDS-PAGE
Experimental: as §1

[5] = biological target: T3, VEGF165 binding to KDR (Homo sapiens, UniProt P15692); assay: Receptor ELISA (KDR)
T3 sequence (P15692 27-191 isoform P15692-4 limits assumed): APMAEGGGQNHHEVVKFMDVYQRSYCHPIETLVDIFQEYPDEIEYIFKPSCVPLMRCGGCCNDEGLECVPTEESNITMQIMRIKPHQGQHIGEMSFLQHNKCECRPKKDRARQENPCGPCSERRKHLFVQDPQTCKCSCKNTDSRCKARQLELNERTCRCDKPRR

[6] = tested on: HUVEC cells; assay: HUVEC cell-proliferation assay; assay type: cell-based, human; details: for inhibition of HUVEC growth: tritium-labeled thymidine
Description: Initial investigation into the biological activity of the peptides involved use of a HUVEC cell-proliferation assay. A contractor (ReliaTech, Braunschweig, Germany) with considerable experience in this assay was employed to carry it out. ReliaTech's assay employed a radiation-based system to detect cell growth by monitoring DNA synthesis using tritium-labeled thymidine.
In this assay, pregrown, starved HUVEC cells proliferate in response to exposure to VEGF or bFGF. Inhibition of VEGF activity will result in a measurable decrease in cell proliferation. […] The effects seen for other peptide sequences were attributed to the DMSO content of their stock solutions (DMSO was required to solubilize all peptides in this assay except for 07-D60).

[7] = biological target: T4, rh-VEGF165 binding to Flt-1 (Homo sapiens, UniProt P15692); assay: Receptor ELISA (Flt-1)
T4 sequence (P15692 27-191 isoform P15692-4 limits assumed): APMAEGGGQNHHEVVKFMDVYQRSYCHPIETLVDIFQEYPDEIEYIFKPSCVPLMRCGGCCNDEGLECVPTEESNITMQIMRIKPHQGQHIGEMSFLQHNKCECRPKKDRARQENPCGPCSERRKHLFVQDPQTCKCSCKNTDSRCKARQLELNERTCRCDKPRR
Description: VEGF acts on two distinct receptors in-vivo, Flt-1 (VEGFR1) and KDR (VEGFR2). The majority of pro-angiogenic signaling appears to be mediated by KDR. Flt-1 binds to VEGF isoforms with a higher affinity than KDR and may serve a largely regulatory role in vivo. […] These studies have been extended using ELISA assays on VEGF Flt-1 binding. In this experiment a soluble fusion of Flt-1 was coated onto Costar ELISA plates. After blocking (2% BSA), solutions of rh-VEGF165 containing serial dilutions of peptide test articles were added. Detection was accomplished using a biotinylated anti-VEGF antibody in combination with a streptavidin-HRP conjugate. The results of the Flt-1 assay are shown in FIG. 6 along with previous results from the analogous KDR assay for comparison.

[8] = tested on: D-VEGF; assay: ELISA of L-peptides from affinity maturation selection; assay type: binding; details: 25 nM, also 5M, 100 nM, 50 nM and 5 nM
Experimental: FIG. 15 depicts an ELISA analysis of peptides deriving from sequences of the affinity maturation mRNA display selection at 25 nM. […] Then the plates were incubated with 25 nM of peptides 07-007, 07-071 and 07-072 respectively in HBS buffer for one hour at room temperature followed by 4× washes with HBS buffer. Detection with Streptavidin-Peroxidase stained with o-Phenylendiamin and H2O2 for 3 minutes.
Then the plates were incubated with either 5 μM or 100 nM of peptides 07-007, 07-071 and 07-072 respectively in HBS buffer for one hour at room temperature followed by 4× washes with HBS buffer. Detection with Streptavidin-Peroxidase stained with o-Phenylendiamin and H2O2 for 3 minutes.
Then the plates were incubated either with 50 nM or 5 nM of peptides 07-007, 07-071 and 07-072 respectively in HBS buffer for one hour at room temperature followed by 4× washes with HBS buffer. Detection with Streptavidin-Peroxidase stained with o-Phenylendiamin and H2O2 for 3 minutes.
Then the plates were incubated with 25 nM of peptides 07-007, 07-071 and 07-072 respectively in HBS buffer for one hour at room temperature followed by 4× washes with HBS buffer.

[9] = tested on: VEGF-dependent cell growth; assay: VEGF-dependent cell growth assay; assay type: cell-based
[10] = biological target: D-VEGF (synthetic VEGF receptor binding domain, residues 8-109, made of D-amino acids) (Homo sapiens (Human)) (UniProt P15692); assay: judged from ELISA signals on coated D-VEGF at 5 nM to 5 uM peptide; reference 07-007

## CC(C)C[C@@H](NC(=O)[C@@H](CCCNC(=N)N)NC(=O)[C@H](NC(=O)CNC(=O)[C@@H](CCCNC(=N)N)NC(=O)[C@@H](Cc1c[nH]cn1)NC(=O)[C@@H](Cc1ccccc1)NC(=O)[C@H]1CCCN1C(=O)[C@@H](CC(C)C)NC(=O)[C@@H](CC(C)C)NC(=O)[C@H](NC(=O)[C@@H](Cc1c[nH]c2ccccc12)NC(=O)[C@@H](CO)NC(=O)CNC(=O)[C@@H](CC(C)C)NC(=O)[C@H](NC(=O)[C@@H](CO)NC(=O)[C@@H](CO)NC(=O)[C@H](NC(=O)[C@@H](CC(=O)O)NC(=O)[C@@H](CCC(=O)O)NC(=O)[C@@H](CCC(N)=O)NC(=O)[C@H](NC(=O)CN)C(C)C)C(C)C)[C@H](C)O)C(C)C)[C@H](C)O)C(=O)N[C@H](CO)C(=O)N[C@@H](C(=O)N[C@H](Cc1c[nH]c2ccccc12)C(=O)N[C@@H](C(=O)N[C@@H](C(N)=O)[C@H](C)O)C(C)C)C(C)C [Peptide G2226] (H-G[dV][dQ][dE][dD][dV][dS][dS][dT][dL]G[dS][dW][dV][dL][dL][dP][dF][dH][dR]G[dT][dR][dL][dS][dV][dW][dV][dT]-NH2; N-terminus and C-terminus assumed)
[1]
  binding to VEGF165: bind tightly; also recorded: best affinity
[2]
  binding to D-VEGF: no detectable affinity
[3]
  binding to L-VEGF: binds only to L-VEGF; also recorded: found to bind
[4]
  binding to commercially available VEGF 165: found to bind
[5]; receptor not specified
  block of VEGF binding in the receptor ELISA: does not appear to block VEGF binding
[6]
  activity in cell-based assays: does not appear to be active

## Avastin: Genentech's anti-VEGF antibody [reference compound]
[6]
  inhibition of HUVEC growth: strong inhibition

## GNALHWVCASNICWRPPWAGRLWGLVRLT [Peptide 07-D60, a modification of G2257]
[6]; 10 micromolar peptide vs 67 nM Avastin
  inhibition of HUVEC growth compared with Avastin: approaches that for 67 nM Avastin
[6]
  inhibition of HUVEC growth: inhibit HUVEC growth in a dose dependent manner; also recorded: inhibit HUVEC cell growth; also recorded: block HUVEC growth in a dose-dependent manner

## GNALHWVCASNICWRPPWAGRLWGLVRLT [Peptide G2257]
[5]; receptor ELISA
  inhibition of VEGF binding to KDR: inhibition of VEGF binding; also recorded: capable of inhibiting VEGF binding to KDR; also recorded: inhibits binding
[7]
  inhibition of VEGF binding to Flt-1: inhibition of VEGF binding; also recorded: inhibits binding

## GVQEDVSSTLGSWVLLPFHRGTRLSVWVT (also: biotinylated form, place not given here) [G2211/2226]
[1]
  binding to VEGF165: bind tightly
[1]; listed as G2211/G2226
  binding to VEGF165: bind to VEGF165 selectively

## H2N-SGSSSGSGSGNALHWVCASNICWRTPWAGQLWRLVRLT-PEG-Bio (H-SGSSSGSGSGNALHWVCASNICWRTPWAGQLWRLVRLT-{PEG-biotin}; cysteine pairing not given here; reading uncertain) [Peptide 07-072]
[8]
  affinity towards D-VEGF in comparison to the non-matured sequence deriving from G2306: vast improvement

## NALHWVCASNICWRSPWAGRLWGLVRL [Peptide G2306]
[9]
  inhibition in a VEGF-dependent cell growth assay: effective dose-dependent inhibition

## H-SGSSSGSGSGNALHWVCASNICWRTPWAGQLWRLVRLT-{PEG-biotin} (cysteine pairing not given here; reading uncertain) [Peptide 07-072 (L-form; variant carrying all three hot spot mutations)]
[10]
  fold improvement of affinity (against the non-mutated sequence 07-007): > 10 >=fold
